Laboratory results as given in US6147097A, “Imidazole derivatives as anti-HIV agents” (Shionogi & Co., Ltd., priority 1994, dated 2000).
Values after ≈ are worked out from the molar mass of the structure shown. Where two headings read alike, the source gives them in different places.

How the values were obtained:
[1] = cytotoxicity in MT-4 cells (MTT, culture medium in place of HIV); format: cell-based; conditions: human
Method in brief: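 Uninfected readout: compound-treated MT-4 cultures, 3.5×10^4 cells/well, received medium in place of virus and were kept 5 days at 37° C. Viability measured by 1 h MTT reduction, solubilized formazan read at 560/690 nm relative to control wells.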

HIV (HTLV-IIIB strain) = assay: microbe, parasite or virus in culture; format: cell-based; conditions: Human immunodeficiency virus 1, IIIB, MT4, 120 h
Method in brief: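 Protection from virus was read as viable-cell MTT conversion to formazan after 5 days at 37° C. The cultures contained MT-4 cells (3.5×10^4/well), compound dilutions and 60 pfu HIV per well.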

[2] = biological target: T1, purified recombinant HIV-1 reverse transcriptase (Human immunodeficiency virus type 1 group M subtype B, UniProt P04585); assay: reverse transcriptase inhibition, poly(rA)/(dT) template primer, [3H]dTTP uptake; format: biochemical
T1 construct: purified recombinant HIV-1 reverse transcriptase; made in house; host or cells: Escherichia coli
Method in brief: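 Inhibition reported as percent reduction of [3H]dTTP incorporation relative to solvent control, after 1 h at 37 °C at pH 8.3. Recombinant RT from E. coli, poly(rA) template with oligo(dT) primer, 4 μM unlabeled dTTP as substrate; product collected on DEAE filter mats.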

[3] = MT-4 cells, no virus, 37° C., 5 days, MTT, Table 3, read-out: CC50
[4] = MT-4 cells, 60 pfu HIV per well, 37° C., 5 days, MTT, Tables 1 and 2, read-out: EC50

Row | Structure (SMILES) | CC50 at 120 h [1, 3] [µg/mL] | EC50 (HIV (HTLV-IIIB strain); [4]) [µg/mL] | IC50 [2] [µM] | CC50 at 120 h ([1]; mt-4 cells) [µg/mL] | EC50 (HIV (HTLV-IIIB strain)) [µg/mL]
1 | CCCn1c(COC(N)=O)nc(C(C)C)c1Sc1cc(Cl)cc(Cl)c1 [Compound I-51, 2-carbamoyloxymethyl-5-(3,5-dichlorophenylthio)-4-isopropyl-1-n-propyl-1H-imidazole] | 6.3 to 12.5 (≈ 15.7 to 31.1 µM) | 0.003 to 0.005 (≈ 0.00746 to 0.0124 µM) | 0.944 |  | 
2 | CC(C)c1nc(COC(N)=O)n(C)c1Sc1cccc(Cl)c1 [Compound I-42, 2-carbamoyloxymethyl-5-(3-chlorophenylthio)-4-isopropyl-1-methyl-1H-imidazole] |  |  | 5 | 8 (≈ 23.5 µM) | 0.07 (≈ 0.206 µM)
3 | CCn1c(CCO)nc(C(C)C)c1Sc1cc(Cl)cc(Cl)c1 [Compound 123a, 2-[5-(3,5-dichlorophenylthio)-1-ethyl-4-isopropyl-1H-imidazol-2-yl]ethanol] |  | 0.0006 (≈ 0.00167 µM) | 0.417 | 6.3 to 12.5 (≈ 17.5 to 34.8 µM) | 
4 | Cc1nc(C(C)C#N)c(Sc2cccc(Cl)c2)n1C (stereo not drawn) [Compound I-97, 2-[5-(3-chlorophenylthio)-1,2-dimethyl-1H-imidazol-4-yl]propiononitrile] | 10 to 100 (≈ 34.3 to 343 µM) | 0.06 to 0.13 (≈ 0.206 to 0.445 µM) | 25.4 |  | 
5 | CC(C)c1nc(CO)n(Cc2cccc3ccccc23)c1Sc1cc(Cl)cc(Cl)c1.Cl [Compound I-120, 5-(3,5-dichlorophenylthio)-2-hydroxymethyl-4-isopropyl-1-(1-naphthylmethyl)-1H-imidazole hydrochloride] |  | 0.13 | 99.6 | 100 | 
6 | CC(C)c1nc(CCCOC(N)=O)n(CCOC(N)=O)c1Sc1cc(Cl)cc(Cl)c1 [Compound I-151, 1-(2-carbamoyloxyethyl)-2-(3-carbamoyloxypropyl)-5-(3,5-dichlorophenylthio)-4-isopropyl-1H-imidazole] |  | 0.0006 (≈ 0.00126 µM) | 6.1 | 50 to 100 (≈ 105 to 210 µM) | 
7 | CCn1c(CCCOC(N)=O)nc(C(C)C)c1Sc1cc(Cl)cc(Cl)c1 [Compound I-149, 2-(3-carbamoyloxypropyl)-5-(3,5-dichlorophenylthio)-1-ethyl-4-isopropyl-1H-imidazole] |  | 0.01 (≈ 0.024 µM) | 0.769 | 6.3 (≈ 15.1 µM) | 
8 | CC(C)c1nc(CO)n(CC(C)(C)O)c1Sc1cc(Cl)cc(Cl)c1 [Compound I-153, 5-(3,5-dichlorophenylthio)-2-hydroxymethyl-1-(2-hydroxy-2-methylpropyl)-4-isopropyl-1H-imidazole] |  | 0.016 (≈ 0.0411 µM) | 25.7 | 12.5 (≈ 32.1 µM) | 
9 | CCOC(=O)Cn1c(CCOCc2ccccc2)nc(C(C)C)c1Sc1cc(Cl)cc(Cl)c1 [Compound 130c] |  | 0.5 (≈ 0.985 µM) | > 197 | 12.5 (≈ 24.6 µM) | 
10 | CC(C)c1nc(CCOCc2ccccc2)n(CCO)c1Sc1cc(Cl)cc(Cl)c1 [Compound 130d, 2-(2-(2-benzyloxyethyl)-5-(3,5-dichlorophenylthio)-4-isopropyl-1H-imidazol-1-yl)ethanol] |  | 0.5 to 1 (≈ 1.07 to 2.15 µM) | > 215 | 6.3 (≈ 13.5 µM) | 
11 | CC(C)c1nc(C=O)n(C)c1Sc1cc(Cl)cc(Cl)c1 [Compound I-7, 5-(3,5-dichlorophenylthio)-4-isopropyl-1-methyl-1H-imidazole-2-carbaldehyde] | 10 to 100 (≈ 30.4 to 304 µM) | 0.13 (≈ 0.395 µM) | 131 |  | 
12 | CC(C)c1nc(CCOC(N)=O)n(Cc2cccc([N+](=O)[O-])c2)c1Sc1cc(Cl)cc(Cl)c1 [Compound 128b, 2-(2-Carbamoyloxyethyl)-5-(3,5-dichlorophenylthio)-4-isopropyl-1-(m-nitrobenzyl)-1H-i-imidazole] |  | 0.13 (≈ 0.255 µM) | > 196 | 6.3 to 12.5 (≈ 12.4 to 24.5 µM) | 
13 | COC(=O)NCc1nc(C(C)C)c(Sc2cc(Cl)cc(Cl)c2)n1C [Compound I-91, 5-(3,5-dichlorophenylthio)-4-isopropyl-1-methyl-2-methoxycarbonylaminomethyl-1H-imidazole] | 6.3 to 12.5 (≈ 16.2 to 32.2 µM) | 0.06 (≈ 0.155 µM) | 0.876 |  | 
14 | CC(C)c1nc(CO)n(CCc2ccccc2)c1Sc1cc(Cl)cc(Cl)c1 [Compound I-121, 5-(3,5-dichlorophenylthio)-2-hydroxymethyl-4-isopropyl-1-(2-phenylethyl)-1H-imidazole] |  | 0.06 (≈ 0.142 µM) | 85.2 | 12.5 (≈ 29.7 µM) | 
15 | CCn1c(COC(N)=O)nc(C(C)C)c1Sc1cc(F)cc(F)c1 [Compound I-58, 2-carbamoyloxymethyl-5-(3,5-difluorophenylthio)-1-ethyl-4-isopropyl-1H-imidazole] | 10 to 100 (≈ 28.1 to 281 µM) |  | 0.422 |  | 0.002 (≈ 0.00563 µM)
16 | CC(C)c1nc(CO)n(Cc2ccc(=O)[nH]c2)c1Sc1cc(Cl)cc(Cl)c1 [Compound 116a, 5-(3,5-dichlorophenylthio)-2-hydroxymethyl-1-(6-oxo-1,6-dihydro-pyridin-3-yl)methyl-4-isopropyl-1H-imidazole] |  | 0.004 (≈ 0.00943 µM) | 3.06 | 30.7 (≈ 72.3 µM) | 

Row | Structure (SMILES) | CC50 at 120 h [1, 3] [µg/mL] | EC50 (HIV (HTLV-IIIB strain); [4]) [µg/mL] | IC50 [2] [µM] | CC50 at 120 h ([1]; mt-4 cells) [µg/mL] | EC50 (HIV (HTLV-IIIB strain)) [µg/mL]
17 | CCn1c(COC(N)=O)nc(C(C)C)c1Sc1cccc(Cl)c1 [Compound I-53, 2-carbamoyloxymethyl-5-(3-chlorophenylthio)-1-ethyl-4-isopropyl-1H-imidazole] | 10 to 100 (≈ 28.3 to 283 µM) |  | 0.593 |  | 0.004 to 0.008 (≈ 0.0113 to 0.0226 µM)
18 | CC(C)c1nc(CNS(C)(=O)=O)n(C)c1Sc1cc(Cl)cc(Cl)c1 [Compound I-87, 5-(3,5-dichlorophenylthio)-4-isopropyl-2-methanesulfonylaminomethyl-1-methyl-1H-imidazole] | 10 to 100 (≈ 24.5 to 245 µM) | 0.5 to 1 (≈ 1.22 to 2.45 µM) | > 245 |  | 
19 | CC(=O)OCCOCc1nc(C(C)C)c(Sc2cc(Cl)cc(Cl)c2)n1C [Compound I-60, 2-{[5-(3,5-dichlorophenylthio)-4-isopropyl-1-methylimidazol-2-yl]methoxy} ethyl acetate] | 12.5 to 25 | ≥ 0.5 | > 240 |  | 
20 | CC(C)c1nc(CCCO)n(C)c1Sc1cc(Cl)cc(Cl)c1 [Compound 137a, 3-(5-(3,5-dichlorophenylthio)-4-isopropyl-1-methyl-1H-imidazol-2-yl)-propan-1-ol] |  | 0.008 (≈ 0.0223 µM) | 5.57 | 6.3 to 12.5 (≈ 17.5 to 34.8 µM) | 
21 | CC(C)c1nc(CO)n(Cc2ccccc2[N+](=O)[O-])c1Sc1cc(Cl)cc(Cl)c1 [Compound 103c, 5-(3,5-dichlorophenylthio)-2-hydroxymethyl-4-isopropyl-1-(o-nitrobenzyl)-1H-imidazole] |  | 0.06 to 0.13 (≈ 0.133 to 0.287 µM) | 57.9 | 6.3 to 12.5 (≈ 13.9 to 27.6 µM) | 
22 | CC(C)c1nc(CO)n(CC(F)(F)F)c1Sc1cc(Cl)cc(Cl)c1 [Compound I-33, 2-[5-(3,5-dichlorophenylthio)-4-isopropyl-1-(1,1,1-trifluoroethyl)-1H-imidazol-2-yl]methanol] | 10 to 100 (≈ 25 to 250 µM) | 0.016 (≈ 0.0401 µM) | 9.77 |  | 
23 | CC(C)c1nc(CO)n(C)c1Sc1cccc([N+](=O)[O-])c1 [Compound I-14, [4-isopropyl-1-methyl-5-(3-nitrophenylthio)-1H-imidazol-2-yl]methanol] | 12.5 to 25 (≈ 40.7 to 81.3 µM) | 0.03 (≈ 0.0976 µM) | 4.23 |  | 
24 | Cc1ncccc1Cn1c(CO)nc(C(C)C)c1Sc1cc(Cl)cc(Cl)c1 [Compound 119a, 5-(3,5-dichlorophenylthio)-2-hydroxymethyl-4-isopropyl-1-(2-methylpyridin-3-ylmethyl)-1H-imidazole] |  | < 0.008 | 14.7 | 12.5 (≈ 29.6 µM) | 
25 | CC(C)c1nc(CO)n(CCc2ccccn2)c1Sc1cc(Cl)cc(Cl)c1 [Compound 112a, 5-(3,5-dichlorophenylthio)-4-isopropyl-2-hydroxymethyl-1-(2-(2-pyridyl)ethyl)-1H-imidazole] |  | 0.008 (≈ 0.0189 µM) | 2.27 | 6.3 (≈ 14.9 µM) | 
26 | COC(=O)C(C)c1nc(C)n(C)c1Sc1cc(C)cc(C)c1 (stereo not drawn) [Compound I-96, methyl 2-[1,2-dimethyl-5-(3,5-dimethylphenylthio)-1H-imidazol-4-yl]propionate] | 10 to 100 (≈ 31.4 to 314 µM) | 0.03 (≈ 0.0942 µM) | 14.4 |  | 
27 | CC(C)c1nc(CCO)n(Cc2ccc([N+](=O)[O-])cc2)c1Sc1cc(Cl)cc(Cl)c1 [Compound 126a, 5-(3,5-dichlorophenylthio)-2-(2-hydroxyethyl)-4-isopropyl-1-p-nitrobenzyl-1H-imidazole] |  | 0.008 (≈ 0.0172 µM) | 2.59 | 6.3 (≈ 13.5 µM) | 
28 | CC(C)c1nc(CN)n(C(C)C)c1Sc1cc(Cl)cc(Cl)c1 [Compound I-72, 2-aminomethyl-5-(3,5-dichlorophenylthio)-1,4-diisopropylimidazole] | 1 to 10 (≈ 2.79 to 27.9 µM) | 0.03 to 0.06 (≈ 0.0837 to 0.167 µM) | 2.23 |  | 
29 | CC(C)c1nc(CCO)n(Cc2cccc([N+](=O)[O-])c2)c1Sc1cc(Cl)cc(Cl)c1 [Compound 126b, 5-(3,5-Dichlorophenylthio)-2-(2-hydroxyethyl)-4-isopropyl-1-m-nitrobenzyl-1H-imidazole] |  | 0.008 to 0.016 (≈ 0.0172 to 0.0343 µM) | 8.58 | 3.1 to 6.3 (≈ 6.65 to 13.5 µM) | 
30 | CC(C)c1nc(CO)n(C)c1Cc1cccc(Cl)c1 [Compound I-102, [5-(3-chlorobezyl)-4-isopropyl-1-methyl-1H-imidazol-2-yl]methanol] | 1 to 10 (≈ 3.59 to 35.9 µM) | 0.5 to 1 (≈ 1.79 to 3.59 µM) | 86.4 |  | 
31 | CCn1c(CCOCc2ccccc2)nc(C(C)C)c1Sc1cc(Cl)cc(Cl)c1 [Compound 122a] |  | 0.13 (≈ 0.289 µM) | 42.3 | 6.3 (≈ 14 µM) | 
